In US11040035B2, “3-oxo-2,6-diphenyl-2,3-dihydropyridazine-4-carboxamides” (BAYER PHARMA AKTIENGESELLSCHAFT, priority 2016, dated 2021):
Several values for one entry are separate records, joined by “and”; a condition that tells them apart may be missing. Identical values can stand only once.

Experiments:
[1] = tested on: TNFa production by LPS-stimulated human monocytes; experiment: In vitro assay 4: rescue of TNFa production from human primary monocytes; type: cell-based; conditions: one value per donor; for Emax: Homo sapiens, Monocyte, 18 h, human monocytes, 10 ng/mL LPS + 200 μM KA, 18 hours, highest percent TNFa rescue relative to highest rescue with GNF-351, read-out: Individual Donors % rescue TNFa normalised to ref cmpd
Method: In Vitro Assay 4: Rescue of TNFa Production from Human Primary Monocytes
The ability of the substances to enhance immune cell activity was determined. The substances were tested for their capacity to reverse KA-induced inhibition of TNFa production by LPS-stimulated human monocytes. Human monocytes were purified by negative selection from donor PBMCs using Miltenyi beads and seeded at 2×10^5 cells/well in complete growth medium (RPMI 1640, 10% FCS). Monocytes were incubated with 10 ng/mL LPS (0127:68, #L4516, Sigma) and 200 μM KA (#3375, Sigma) and substances were added at concentrations of 1 μM, 0.3 μM and 0.1 μM and cultured for 18 hours. LPS alone served as the positive control. TNFa production in the supernatant was measured by Meso Scale Discovery immunassay and the ability of the substances to rescue TNFa production was calculated as a percentage of LPS stimulation and KA-induced inhibition and normalized to the donor-specific response with the reference AHR antagonist compound GNF-351 (Smith et al., J Pharmacol Exp Ther, 2011, 338(1):318-27).

AHR [2] = target: T1, AHR (Homo sapiens, UniProt P35869); experiment: In vitro assay 2: agonism in human cell line (transactivation assay)
T1 sequence (P35869 11-848): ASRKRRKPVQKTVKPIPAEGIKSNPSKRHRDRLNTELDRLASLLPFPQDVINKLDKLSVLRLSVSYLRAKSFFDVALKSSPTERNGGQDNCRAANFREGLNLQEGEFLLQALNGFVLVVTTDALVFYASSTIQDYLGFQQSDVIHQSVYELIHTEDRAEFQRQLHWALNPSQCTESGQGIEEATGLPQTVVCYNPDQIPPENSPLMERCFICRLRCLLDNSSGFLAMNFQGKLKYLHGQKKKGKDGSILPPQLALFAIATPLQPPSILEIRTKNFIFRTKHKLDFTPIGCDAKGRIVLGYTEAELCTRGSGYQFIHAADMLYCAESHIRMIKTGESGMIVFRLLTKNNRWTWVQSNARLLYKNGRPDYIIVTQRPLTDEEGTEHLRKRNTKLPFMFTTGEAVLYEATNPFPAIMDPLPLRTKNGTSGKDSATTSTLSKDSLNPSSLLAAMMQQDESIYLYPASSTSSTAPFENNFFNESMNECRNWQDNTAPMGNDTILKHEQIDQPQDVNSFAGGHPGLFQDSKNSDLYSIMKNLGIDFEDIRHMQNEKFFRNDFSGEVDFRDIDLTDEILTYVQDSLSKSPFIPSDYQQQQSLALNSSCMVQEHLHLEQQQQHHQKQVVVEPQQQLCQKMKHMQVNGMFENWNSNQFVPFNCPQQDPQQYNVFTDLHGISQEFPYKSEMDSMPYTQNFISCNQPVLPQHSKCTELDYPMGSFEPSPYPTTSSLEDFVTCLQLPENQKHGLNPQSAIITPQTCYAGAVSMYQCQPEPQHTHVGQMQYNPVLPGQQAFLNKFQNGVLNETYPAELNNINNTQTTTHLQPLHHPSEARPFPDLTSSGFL

[3] = tested on: AHR-regulated gene CYP1A1; experiment: In vitro assay 3: AHR-regulated CYP1A1 expression in human cell line (U937, qPCR); conditions: Homo sapiens, U-937, 6 h, read-out: Assay 3: Hum CYP1A1 Antagonism IC50 [M], U937 cells, 200 μM KA, 6 hours, qPCR
AHR [4] = target: T1, AHR; experiment: In vitro assay 1: antagonism in human cell line (transactivation assay, kynurenic acid prestimulated); conditions: Assay 1: AHR-luc Hum Antagonism IC50 [M], 150 μM kynurenic acid, 20 hours, firefly luciferase
[5] = read-out: Assay 2: AHR-luc Hum Agonism IC50, no kynurenic acid, 20 hours, firefly luciferase
[6] = Assay 2: AHR-luc Hum Agonism IC50 [M], no kynurenic acid, 20 hours, firefly luciferase

CC(C)(O)C(NC(=O)c1cc(-c2ccc(Cl)cc2)nn(-c2cccc(F)c2)c1=O)C(F)(F)F (single isomer, unassigned) [Example 279]
Emax [1]: 53% | IC50 (AHR [2]; [5]): > 2e-05 M | IC50 [3]: 2.89e-09 M | IC50 (AHR [4]): 6.07e-09 M

O=C(NC(CO)C(F)(F)F)c1cc(-c2ccc(Cl)cc2)nn(-c2cccc(F)c2)c1=O (single isomer, unassigned; (+)) [Example 99, (+)-6-(4-Chlorophenyl)-2-(3-fluorophenyl)-3-oxo-N-(1,1,1-trifluoro-3-hydroxypropan-2-yl)-2,3-dihydropyridazine-4-carboxamide]
Emax [1]: 101% | IC50 (AHR [2]; [5]): > 2e-05 M | IC50 [3]: 3.77e-09 M | IC50 (AHR [4]): 1.04e-08 M

O=C(N[C@H](CO)C(F)(F)F)c1cc(-c2ccc(C(F)F)cc2)nn(-c2cccc(F)c2)c1=O [Example 296, 6-[4-(Difluoromethyl)phenyl]-2-(3-fluorophenyl)-3-oxo-N-[(2R)-1,1,1-trifluoro-3-hydroxypropan-2-yl]-2,3-dihydropyridazine-4-carboxamide]
IC50 (AHR [2]; [6]): > 2e-05 M | IC50 [3]: 6.22e-09 M | IC50 (AHR [4]): 3.66e-09 M

CC[C@@H](CO)NC(=O)c1cc(-c2ccc(Cl)c(Cl)c2)nn(-c2cccc(F)c2)c1=O [Example 306, 6-(3,4-Dichlorophenyl)-2-(3-fluorophenyl)-N-[(2S)-1-hydroxybutan-2-yl]-3-oxo-2,3-dihydropyridazine-4-carboxamide]
IC50 (AHR [2]; [6]): > 2e-05 M | IC50 [3]: 1.75e-07 M | IC50 (AHR [4]): 1.06e-07 M

COC[C@@H](CO)NC(=O)c1cc(-c2ccc(Cl)cc2)nn(-c2cccc(F)c2)c1=O [Example 314, 6-(4-chlorophenyl)-2-(3-fluorophenyl)-N-[(2R)-1-hydroxy-3-methoxypropan-2-yl]-3-oxo-2,3-dihydropyridazine-4-carboxamide]
IC50 (AHR [2]; [6]): > 2e-05 M | IC50 [3]: 2.31e-07 M | IC50 (AHR [4]): 9.54e-08 M

COC(=O)[C@@H](CO)NC(=O)c1cc(-c2ccc(Cl)cc2)nn(-c2cccc(F)c2)c1=O [Example 315, methyl N-{[6-(4-chlorophenyl)-2-(3-fluorophenyl)-3-oxo-2,3-dihydropyridazin-4-yl]carbonyl}-D-serinate]
IC50 (AHR [2]; [6]): > 2e-05 M | IC50 [3]: 2e-06 M | IC50 (AHR [4]): 8.53e-08 M

O=C(N[C@H]1C[C@@H](O)C1)c1cc(-c2ccc(Cl)cc2)nn(-c2cccc(F)c2)c1=O [Example 324, 6-(4-chlorophenyl)-2-(3-fluorophenyl)-N-(cis-3-hydroxycyclobutyl)-3-oxo-2,3-dihydropyridazine-4-carboxamide]
IC50 (AHR [2]; [6]): > 2e-05 M | IC50 [3]: 8.18e-08 M | IC50 (AHR [4]): 4.67e-08 M

O=C(NCC1(O)COC1)c1cc(-c2ccc(Cl)cc2)nn(-c2cccc(F)c2)c1=O [Example 331, 6-(4-chlorophenyl)-2-(3-fluorophenyl)-N-[(3-hydroxyoxetan-3-yl)methyl]-3-oxo-2,3-dihydropyridazine-4-carboxamide]
IC50 (AHR [2]; [6]): > 2e-05 M | IC50 [3]: 1.42e-07 M | IC50 (AHR [4]): 7.87e-08 M

CC(C)[C@@H](CO)NC(=O)c1cc(-c2ccc(Cl)cc2)nn(-c2cccc(C#N)c2)c1=O [Example 361, 6-(4-chlorophenyl)-2-(3-cyanophenyl)-N-[(2S)-1-hydroxy-3-methylbutan-2-yl]-3-oxo-2,3-dihydropyridazine-4-carboxamide]
IC50 (AHR [2]; [6]): > 2e-05 M | IC50 [3]: 2.96e-07 M | IC50 (AHR [4]): 1.66e-07 M

Cc1cccc(-n2nc(-c3ccc(Cl)cc3)cc(C(=O)N[C@H](CO)C(C)C)c2=O)c1 [Example 365, 6-(4-chlorophenyl)-N-[(2S)-1-hydroxy-3-methylbutan-2-yl]-2-(3-methylphenyl)-3-oxo-2,3-dihydropyridazine-4-carboxamide]
IC50 (AHR [2]; [6]): > 2e-05 M | IC50 [3]: > 1e-06 M | IC50 (AHR [4]): 4.18e-07 M

Cc1cccc(-n2nc(-c3ccc(Cl)cc3)cc(C(=O)N[C@@H](C)CO)c2=O)c1 [Example 369, 6-(4-chlorophenyl)-N-[(2S)-1-hydroxypropan-2-yl]-2-(3-methylphenyl)-3-oxo-2,3-dihydropyridazine-4-carboxamide]
IC50 (AHR [2]; [6]): > 2e-05 M | IC50 [3]: > 1e-06 M | IC50 (AHR [4]): 9.73e-07 M

C[C@@H](CO)NC(=O)c1cc(-c2ccc(N3CCOCC3)cc2)nn(-c2cccc(F)c2)c1=O [Example 374, 2-(3-fluorophenyl)-N-[(2S)-1-hydroxypropan-2-yl]-6-[4-(morpholin-4-yl)phenyl]-3-oxo-2,3-dihydropyridazine-4-carboxamide]
IC50 (AHR [2]; [6]): > 2e-05 M | IC50 [3]: > 3e-07 M | IC50 (AHR [4]): 2.65e-08 M

CC(C)[C@@H](CO)NC(=O)c1cc(-c2ccc(N(C)C)c(Cl)c2)nn(-c2cccc(F)c2)c1=O [Example 375, 6-[3-chloro-4-(dimethylamino)phenyl]-2-(3-fluorophenyl)-N-[(2S)-1-hydroxy-3-methylbutan-2-yl]-3-oxo-2,3-dihydropyridazine-4-carboxamide]
IC50 (AHR [2]; [6]): > 2e-05 M | IC50 [3]: 5.73e-08 M | IC50 (AHR [4]): 3.05e-08 M

CN(C)c1ccc(-c2cc(C(=O)NC(CO)C(F)(F)F)c(=O)n(-c3cccc(F)c3)n2)cc1Cl (stereo not drawn) [Example 376, 6-[3-chloro-4-(dimethylamino)phenyl]-2-(3-fluorophenyl)-3-oxo-N-(1,1,1-trifluoro-3-hydroxypropan-2-yl)-2,3-dihydropyridazine-4-carboxamide]
IC50 (AHR [2]; [6]): > 2e-05 M | IC50 [3]: 1.12e-07 M | IC50 (AHR [4]): 3.97e-08 M

CC(C)(O)[C@@H](NC(=O)c1cc(-c2ccc(OC(F)(F)F)cc2)nn(-c2cccc(F)c2)c1=O)C1CC1 [Example 379, N-[(1S)-1-cyclopropyl-2-hydroxy-2-methylpropyl]-2-(3-fluorophenyl)-3-oxo-6-[4-(trifluoromethoxy)phenyl]-2,3-dihydropyridazine-4-carboxamide]
IC50 (AHR [2]; [6]): > 2e-05 M | IC50 [3]: 6.9e-09 M | IC50 (AHR [4]): 9.6e-09 M

C[C@H](NC(=O)c1cc(-c2ccc(OC(F)(F)F)cc2)nn(-c2cccc(F)c2)c1=O)C(C)(C)O [Example 380, 2-(3-fluorophenyl)-N-[(2S)-3-hydroxy-3-methylbutan-2-yl]-3-oxo-6-[4-(trifluoromethoxy)phenyl]-2,3-dihydropyridazine-4-carboxamide]
IC50 (AHR [2]; [6]): > 0.0001 M | IC50 [3]: 6.3e-08 M | IC50 (AHR [4]): 2.8e-08 M

C[C@H](NC(=O)c1cc(-c2ccc(C(F)F)cc2)nn(-c2cccc(F)c2)c1=O)C(C)(C)O [Example 383, 6-[4-(difluoromethyl)phenyl]-2-(3-fluorophenyl)-N-[(2S)-3-hydroxy-3-methylbutan-2-yl]-3-oxo-2,3-dihydropyridazine-4-carboxamide]
IC50 (AHR [2]; [6]): > 2e-05 M | IC50 [3]: 3.4e-08 M | IC50 (AHR [4]): 2.1e-08 M

C[C@H](NC(=O)c1cc(-c2ccc(Cl)cc2)nn(-c2cccc(F)c2)c1=O)C(C)(C)O [Example 392, 6-(4-chlorophenyl)-2-(3-fluorophenyl)-N-[(2S)-3-hydroxy-3-methylbutan-2-yl]-3-oxo-2,3-dihydropyridazine-4-carboxamide]
IC50 (AHR [2]; [6]): > 2e-05 M | IC50 [3]: 5.7e-08 M | IC50 (AHR [4]): 2.6e-08 M

N#C[C@@H](CO)NC(=O)c1cc(-c2ccc(Cl)cc2)nn(-c2cccc(F)c2)c1=O [Example 393, 6-(4-chlorophenyl)-N-[(1S)-1-cyano-2-hydroxyethyl]-2-(3-fluorophenyl)-3-oxo-2,3-dihydropyridazine-4-carboxamide]
IC50 (AHR [2]; [6]): > 2e-05 M | IC50 [3]: 4.6e-08 M | IC50 (AHR [4]): 2.7e-08 M

Cc1cncc(-c2nc(NCCc3c[nH]c4ccccc34)c3ncn(C(C)C)c3n2)c1 [GNF-351, reference compound]
Individual Donors Conc of highest rescue ([1]; concentration (of 1, 0.3, 0.1 μM tested) at which highest TNFa rescue was observed): 0.3 µM and 0.1 µM
